# Assay results from US11999746B2, “Compounds” (GlaxoSmithKline Intellectual Property Development Limited, priority 2014, dated 2024).
# Key:
# [1] = tested on: experimental autoimmune encephalomyelitis (EAE) rats; experiment: Rat experimental autoimmune encephalomyelitis (EAE) model, preventive treatment; format: in vivo; details: compound administered from day 0 until day 22
# Protocol: A further study was carried out to study the impact of Lp-PLA2 inhibitors on modulating M1/M2 imbalance. In this study, rats were induced to develop experimental autoimmune encephalomyelitis (EAE) by immunization with myelin basic protein (MBP) antigen and treated with a known Lp-PLA2 inhibitor: 5-((9-Methoxy-4-oxo-6,7-dihydro-4H-pyrimido[6,1-a]isoquinolin-2-yl)oxy)-2-(3-(trifluoromethyl)phenoxy)benzonitrile (See PCT application no. PCT/CN2011/001597). In this preventive treatment model, the compound was administered at day 0 (day of immunization) and continued to administer until day 22. The study lasted for 25 days. Rats were subsequently monitored for symptoms of EAE. Rats were immunized with MBP to develop EAE and symptoms were monitored daily. Plasma Lp-PLA2 activity, OxLDL, and LysoPC concentration were determined at different time points through the course of EAE.
# [2] = tested on: proinflammatory (M1) and anti-inflammatory (M2) markers in splenic and CNS infiltrating macrophages; experiment: Ex vivo analysis of M1 and M2 markers in macrophages of EAE rats by realtime PCR; set-up: species or system rat; details: macrophages of compound treated EAE rats, splenic macrophages harvested at day 13 post MBP-immunization
# Protocol: Ex vivo analysis of proinflammatory (M1) and anti-inflammatory (M2) markers in control and compound treated EAE rats. Splenic macrophages were harvested at day 13 post MBP-immunization and assayed for expression of a variety of markers by realtime PCR. CNS infiltrating cells were harvested and macrophages were analyzed for expression of M1 and M2 markers by realtime PCR.
# [3] = target: T1, recombinant human Lp-PLA2 (Homo sapiens, UniProt Q13093); experiment: (1b) hrThioPAF assay, recombinant human Lp-PLA2; format: biochemical; details: Examples 266-412 were tested here, one experiment or average of multiple experiments, read-out: rhLp-PLA2 (pIC50) (converted)
# T1 sequence (Q13093 22-441): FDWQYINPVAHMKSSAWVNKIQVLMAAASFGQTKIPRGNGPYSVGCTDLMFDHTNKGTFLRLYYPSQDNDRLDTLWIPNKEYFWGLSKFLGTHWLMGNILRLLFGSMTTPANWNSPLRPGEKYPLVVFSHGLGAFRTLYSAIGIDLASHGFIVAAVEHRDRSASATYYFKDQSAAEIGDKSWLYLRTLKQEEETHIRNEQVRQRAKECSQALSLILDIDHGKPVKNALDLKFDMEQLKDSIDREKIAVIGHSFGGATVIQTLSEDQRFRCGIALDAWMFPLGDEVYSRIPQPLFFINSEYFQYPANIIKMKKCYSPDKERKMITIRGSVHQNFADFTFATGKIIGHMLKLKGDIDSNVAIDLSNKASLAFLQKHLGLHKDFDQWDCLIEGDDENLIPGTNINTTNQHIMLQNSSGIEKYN
# Procedure, shortened: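 Fluorogenic assay: 20 pM rhLp-PLA2 in 50 mM HEPES pH 7.4, 150 mM NaCl, 1 mM CHAPS with 1:3 serially diluted compounds; substrate mix of 40 μM 2-thio-PAF, 40 μM CPM, 400 μM NEM (pre-addition levels). 20 min at 25 °C in the dark; fluorescence ex 380/em 485 nm, pIC50 by curve fitting.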
# Lp-PLA2 in human plasma = target: T2, Lp-PLA2 in human plasma (Homo sapiens, UniProt Q13093); experiment: (3b) Lp-PLA2 human plasma alternative Thio-PAF assay; format: biochemical; details: (3b) alternative Thio-PAF assay, pooled human plasma; Examples of 266-412 were tested here; read-out: pIC50 in the Lp-PLA2 human plasma assay (converted)
# T2 construct: from tissue; host or cells: pooled human plasma
# T2 sequence (Q13093 22-441): T1 sequence (Q13093 22-441)
# Procedure, shortened: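 Pooled human plasma was preincubated with compound for 15 min at RT. Substrate solution (2 mM 2-thio-PAF, 52 μM CPM, 2.5 mM NEM in 50 mM HEPES pH 7.4, 150 mM NaCl, 1 mM CHAPS; pre-addition concentrations) was added, and the reaction was quenched with 5% TFA after 3 min. Fluorescence was read at ex 380/em 485 nm and fitted to give pIC50.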
Structure (SMILES),IC50 [3],IC50 (Lp-PLA2 in human plasma),also measured
"COc1ccc2c(c1)CCn1c-2cc(Oc2ccc(Oc3cccc(C(F)(F)F)c3)c(C#N)c2)nc1=O [5-((9-Methoxy-4-oxo-6,7-dihydro-4H-pyrimido[6,1-a]isoquinolin-2-yl)oxy)-2-(3-(trifluoromethyl)phenoxy)benzonitrile]",,,"plasma Lp-PLA2 activity ([1]; rat EAE plasma): decreased; plasma LysoPC levels ([1]; rat EAE plasma): decreased; clinical disease (symptoms of EAE) ([1]; rats immunized with MBP, study lasted 25 days): reduction in clinical disease; M1 (proinflammatory) markers [2]: decrease; M2 (anti-inflammatory) markers [2]: increase"
"N#Cc1cc(COc2cc3n(c(=O)n2)C[C@@H]2C[C@H](O)CN32)ccc1F [Example E382, 2-Fluoro-5-((((7S,8aS)-7-hydroxy-1-oxo-1,6,7,8,8a,9-hexahydropyrrolo[1′,2′:3,4]imidazo[1,2-c]pyrimidin-3-yl)oxy)methyl)benzonitrile]",≤ 10 µM,≤ 0.1 µM,
"O=c1nc(OCc2cc(F)c(Oc3ccnc(C(F)(F)F)c3)c(F)c2)cc2n1C[C@@H]1C[C@H](O)CN21 [Example E383, (7S,8aS)-3-((3,5-Difluoro-4-((2-(trifluoromethyl)pyridin-4-yl)oxy)benzyl)oxy)-7-hydroxy-7,8,8a,9-tetrahydropyrrolo[1′,2′:3,4]imidazo[1,2-c]pyrimidin-1(6H)-one]",≤ 0.001 µM,≤ 0.1 µM,
"O=c1nc(OCc2cc(F)c(Oc3ccnc(C(F)(F)F)c3)c(F)c2)cc2n1C[C@H]1C[C@@H](O)CN21 [Example E384, (7R,8aR)-3-((3,5-Difluoro-4-((2-(trifluoromethyl)pyridin-4-yl)oxy)benzyl)oxy)-7-hydroxy-7,8,8a,9-tetrahydropyrrolo[1′,2′:3,4]imidazo[1,2-c]pyrimidin-1(6H)-one]",≤ 10 µM,≤ 0.1 µM,
"N#Cc1cc(COc2cc3n(c(=O)n2)C[C@H]2C[C@H](N)CN32)ccc1F [Example E386, 5-((((7S,8aR)-7-Amino-1-oxo-1,6,7,8,8a,9-hexahydropyrrolo[1,2′:3,4]imidazo[1,2-c]pyrimidin-3-yl)oxy)methyl)-2-fluorobenzonitrile]",≤ 10 µM,≤ 0.1 µM,
"N[C@@H]1C[C@@H]2Cn3c(cc(OCc4cc(F)c(Oc5ccnc(C(F)(F)F)c5)c(F)c4)nc3=O)N2C1 [Example E387, (7R,8aR)-7-Amino-3-((3,5-difluoro-4-((2-(trifluoromethyl)pyridin-4-yl)oxy)benzyl)oxy)-7,8,8a,9-tetrahydropyrrolo[1′,2′:3,4]imidazo[1,2-c]pyrimidin-1(6H)-one]",≤ 10 µM,≤ 0.1 µM,
"N[C@H]1C[C@@H]2Cn3c(cc(OCc4cc(F)c(Oc5ccnc(C(F)(F)F)c5)c(F)c4)nc3=O)N2C1 [Example E388, (7S,8aR)-7-Amino-3-((3,5-difluoro-4-((2-(trifluoromethyl)pyridin-4-yl)oxy)benzyl)oxy)-7,8,8a,9-tetrahydropyrrolo[1′,2′:3,4]imidazo[1,2-c]pyrimidin-1(6H)-one]",≤ 0.001 µM,≤ 0.1 µM,
"N[C@H]1C[C@H]2Cn3c(cc(OCc4cc(F)c(Oc5ccnc(C(F)(F)F)c5)c(F)c4)nc3=O)N2C1 [Example E390, (7S,8aS)-7-Amino-3-((3,5-difluoro-4-((2-(trifluoromethyl)pyridin-4-yl)oxy)benzyl)oxy)-7,8,8a,9-tetrahydropyrrolo[1′,2′:3,4]imidazo[1,2-c]pyrimidin-1(6H)-one]",≤ 10 µM,≤ 0.1 µM,
"N#Cc1cc(COc2cc3n(c(=O)n2)C[C@@H]2C[C@H](N)CN32)ccc1F [Example E391, 5-((((7S,8aS)-7-Amino-1-oxo-1,6,7,8,8a,9-hexahydropyrrolo[1′,2′:3,4]imidazo[1,2-c]pyrimidin-3-yl)oxy)methyl)-2-fluorobenzonitrile]",≤ 10 µM,≤ 0.1 µM,
"N[C@@H]1C[C@H]2Cn3c(cc(OCc4cc(F)c(Oc5ccnc(C(F)(F)F)c5)c(F)c4)nc3=O)N2C1 [Example E392, (7R,8aS)-7-Amino-3-((3,5-difluoro-4-((2-(trifluoromethyl)pyridin-4-yl)oxy)benzyl)oxy)-7,8,8a,9-tetrahydropyrrolo[1′,2′:3,4]imidazo[1,2-c]pyrimidin-1(6H)-one]",≤ 10 µM,≤ 0.1 µM,
"Cc1ccc(Oc2c(F)cc(COc3cc4n(c(=O)n3)CC3(COC3)N4)cc2F)cn1 [Example E394, 7-((3,5-Difluoro-4-((6-methylpyridin-3-yl)oxy)benzyl)oxy)-1H-spiro[imidazo[1,2-c]pyrimidine-2,3′-oxetan]-5(3H)-one]",≤ 10 µM,≤ 0.1 µM,
"O=c1nc(OCc2cc(F)c(Oc3ccnc(C(F)(F)F)c3)c(F)c2)cc2n1CC1(COC1)N2 [Example E395, 7-((3,5-difluoro-4-((2-(trifluoromethyl)pyridin-4-yl)oxy)benzyl)oxy)-1H-spiro[imidazo[1,2-c]pyrimidine-2,3′-oxetan]-5(3H)-one]",0.000794 µM,≤ 0.1 µM,
"O=c1nc(OCc2ccc(F)c(F)c2)cc2n1CC1(COC1)N2 [Example E396, 7-((3,4-difluorobenzyl)oxy)-1H-spiro[imidazo[1,2-c]pyrimidine-2,3′-oxetan]-5(3H)-one]",≤ 10 µM,≤ 0.1 µM,
"CN1c2cc(OCc3cc(F)c(Oc4cnn(C)c4)c(F)c3)nc(=O)n2CC12COC2 [Example E397, 7-((3,5-Difluoro-4-((1-methyl-1H-pyrazol-4-yl)oxy)benzyl)oxy)-1-methyl-1H-spiro[imidazo[1,2-c]pyrimidine-2,3′-oxetan]-5(3H)-one]",≤ 10 µM,≤ 0.1 µM,
